Assay results taken from patent US20260240872A1, “COMBINATION OF METFORMIN AND GLIBENCLAMIDE IN THE TREATMENT OF PARKINSON'S DISEASE” (CXS THERAPEUTICS, priority 2023, published 2026).

Assays:
Assay type in all cases: cell-based
[1] = test system: rat primary dopaminergic neurons; experiment: Example 2: 6-OHDA injury, protective protocol, total number of TH positive neurons (dopaminergic neurons survival); settings: for cellular death (decrease of dopaminergic neurons survival): 48 hours; for cellular death / protection of dopaminergic neurons from cell death induced by 6-OHDA: one-hour pre-treatment; for cellular death: 6-OHDA 20 μM 48 hours, Plate 1, not significant; for protection of dopaminergic neurons from cell death induced by 6-OHDA: compound alone, 6-OHDA 48 hours, conclusion; for dopaminergic neurons survival: BDNF 50 ng/ml + 6-OHDA 20 μM 48 hours
Description: (§1) The total number and the neurites length of dopaminergic neurons was assessed.
(§2) Rat mesencephalic neurons were cultured as described by Schinelli et al., 1988. Briefly pregnant female rats of 15 days gestation were killed by cervical dislocation (Rats Wistar; Janvier Lab) and the fetuses removed from the uterus. The embryonic midbrains were removed and placed in ice-cold medium of Leibovitz 15 (L15; PanBiotech, Ref P04-27055, Batch: 1260323) containing 2% of Penicillin-Streptomycin (PS; PanBiotech, ref: P06-07100, Batch: 2585615) and 1% of bovine serum albumin (BSA; Sigma, Ref: 810533, Batch: 73). Only the ventral portions of the mesencephalic flexure were used for the cell preparation as this region of the developing brain is enriched in dopaminergic neurons. The midbrains were dissociated by […] for 20 minutes (min) at 37° C. (Trypsin EDTA 1×; PanBiotech, Ref: P10-023100, Batch: 8290223). The reaction was stopped by the addition of Dulbecco's modified Eagles medium (DMEM; PanBiotech, Ref: P04-03600, Batch: 6041222) containing Dnase | grade II (0.1 mg/ml; PanBiotech, Ref: P60-37780100, Batch: H210916) and 10% of fetal calf serum (FCS; Invitrogen, Ref: 10270106, Batch: 2534381). Cells were then mechanically dissociated by 3 passages through a 10 mL pipette. Cells were then centrifuged at 180×g for 10 min at +4° C. on a layer of BSA (3.5%) in L15 medium. The supernatant was discarded and the cell pellets were resuspended in a defined culture medium consisting of Neurobasal Plus (Gibco, Ref: A3582901, Batch: 2537248) supplemented with 2% of B27 Plus (Gibco, ref: A3582801, Batch: 2722550), L-glutamine (2 mM; PanBiotech, Ref: P04-80100, Batch: 7061121), 2% of PS, 10 ng/ml of BDNF PeproTech, Ref: 450-02, Batch: 092361) and 1 ng/ml of Glial Derived Neurotrophic factor (GDNF; PeproTech, Ref: 450-10, Batch: 012364). Viable cells were then counted in a Neubauer cytometer using the trypan blue exclusion test. The cells were seeded at a density of 40 000 cells/well in 96 well-plates coated with poly-L-Ornithine (Sigma, Ref: P4957, Batch: RNBL6953) and laminin (Sigma, Ref: L2020, Batch: 0000216258), and were cultured at 37° C. in a humidified air (95%)/CO2 (5%) atmosphere. Half of the medium was changed every 2 days with fresh medium. In these conditions, after 5 days of culture, astrocytes are present in the culture and release growth factor allowing neurons differentiation. In this condition, 2 to 5% of neurons are dopaminergic neurons.
(§3) Briefly, 6-OHDA (Sigma, Ref: H4381, Batch: MKCQ5002) was reconstituted in define culture medium at 40 μM (stock solution). The control medium was prepared in the same conditions. After 7 days of culture, primary mesencephalic neurons were pre-treated for 1 hour with test compounds or reference compound (BDNF, 50 ng/ml) and then intoxicated with 6-OHDA at a final concentration of 20 μM for 2 days incubation in order to induce a neuronal cell death of about 40%. The following conditions were done:
(§4) After 2 days of intoxication, cells were fixed by a solution of 4% paraformaldehyde (Alpha Aesar, ref J19943, Batch: 211457) for 20 min at room temperature, the control conditions were fixed as well following the same procedure. The cells were then permeabilized and non-specific sites were blocked with a solution of phosphate buffered saline (PBS; VWR; ref: L0615-500, Batch: MS01 MB) containing 0.1% of saponin (Sigma; ref: S7900, Batch: BCBL8667V) and 1% FCS for 15 min at room temperature. Cells were incubated with a rabbit polyclonal anti-Tyrosine Hydroxylase antibody (TH, 1/1000, Sigma, ref: AB152, Batch: 3870479) in a solution of PBS overnight at 4° C.
(§5) Nuclei of cells were labelled by a fluorescent marker (Hoechst, Sigma; ref: B1155, Batch: 046M4048V) in the same solution.
(§6) For each condition, 20 pictures per well were taken using InCell Analyzer™ 2200 (GE Healthcare) with 20× magnification. Images of each culture well were taken in same condition.

[2] = test system: rat primary dopaminergic neurons; experiment: Example 2: 6-OHDA injury, protective protocol, length of TH positive neurites; settings: for neurites loss (decrease of neurites length): 6-OHDA 20 μM, 48 hours; for neurites loss / protection of neurites from damages induced by 6-OHDA: one-hour pre-treatment, 6-OHDA 48 hours; for neurites loss: Plate 1, not significant; for protection of neurites from damages induced by 6-OHDA: compound alone, conclusion; for neurites length: p<0.05
Description: as §1, §2, §3, §4, §5, §6

[3] = test system: rat primary dopaminergic neurons; experiment: Example 1: 6OH-DA injury on rat primary mesencephalic culture, number of TH positive dopaminergic neurons (survival/viability); settings: FIG. 1
[4] = test system: rat primary dopaminergic neurons; experiment: Example 1: 6OH-DA injury on rat primary mesencephalic culture, neurite length (fitness) of dopaminergic neurons; settings: compound alone; as compared to Brain Derived Neurotrophic Factor; FIG. 2
Excerpt: In these conditions, after 5 days of culture, astrocytes are present in the culture and release growth factor allowing neurons differentiation.

Molecule	cellular death ([1]; compound alone at 1 μM) [%]	cellular death ([1]; compound alone at 3 μM) [%]	cellular death ([1]; compound alone at 10 μM) [%]	protection of dopaminergic neurons from cell death induced by 6-OHDA [1]	neurites loss ([2]; compound alone at 1 μM) [%]	neurites loss ([2]; compound alone at 3 μM) [%]	neurites loss ([2]; compound alone at 10 μM) [%]	protection of neurites from damages induced by 6-OHDA [2]	also measured
NCCc1cc(O)c(O)cc1O [6-OHDA, 6-hydroxydopamine]	–	–	–	–	–	–	–	–	cellular death (decrease of dopaminergic neurons survival) ([1]; 20 μM, Plate 2, FIG. 7, p<0.0001): 55%; cellular death (decrease of dopaminergic neurons survival) ([1]; 6-OHDA 20 μM, Plate 1, FIG. 6, p<0.0001): 54%; cellular death (decrease of dopaminergic neurons survival) ([1]; 6-OHDA 20 μM, Plate 3, FIG. 8, p<0.001): 46%; neurites loss (decrease of neurites length) ([2]; Plate 1, FIG. 9, p<0.001): 54%; neurites loss (decrease of neurites length) ([2]; Plate 2, FIG. 10, p<0.0001): 56%; neurites loss (decrease of neurites length) ([2]; Plate 3, FIG. 11, p<0.001): 45%
CN(C)C(=N)NC(=N)N [CXS001, 1,1-dimethylbiguanide]	43	44	51	does not protect	38	43	55	does not protect	–
COc1ccc(Cl)cc1C(=O)NCCc1ccc(S(=O)(=O)NC(=O)NC2CCCCC2)cc1 [CXS002, Glibenclamide]	58	57	47	does not protect	58	57	47	does not protect	neuron viability ([3]; at high concentration, 6OHDA intoxication): seems to decrease neuron viability; dopaminergic neuron survival in 6OHDA intoxication ([3]; compound alone, as compared to Brain Derived Neurotrophic Factor): did not improve dopaminergic neuron survival; dopaminergic neuron fitness (neurite length) in 6OHDA intoxication [4]: did not improve dopaminergic neuron fitness
BDNF: Brain Derived Neurotrophic factor, used as reference compound (positive control) at 50 ng/ml (protein, UniProt P23560 19-247, looked up) Neurotrophic factor BDNF …: APMKEANIRGQGGLAYPGVRTHGTLESVNGPKAGSRGLTSLADTFEHVIEELLDEDQKVRPNEENNKDADLYTSRVMLSSQVPLEPPLLFLLEEYKNYLDAANMSMRVRRHSDPARRGELSVCDSISEWVTAADKKTAVDMSGGTVTVLEKVPVSKGQLKQYFYETKCNPMGYTKEGCRGIDKRHWNSQCRTTQSYVRALTMDSKKRIGWRFIRIDTSCVCTLTIKRGR	–	–	–	–	–	–	–	–	dopaminergic neurons survival ([1]; Plate 1, FIG. 6, p<0.05): 81 % of the control; dopaminergic neurons survival ([1]; Plate 2, FIG. 7, p<0.0001): 87 % of the control; dopaminergic neurons survival ([1]; Plate 3, FIG. 8, p<0.05): 83 % of the control; neurites length ([2]; BDNF 50 ng/mL + 6-OHDA 20 μM 48 hours, Plate 1, FIG. 9): 79 % of the control; neurites length ([2]; BDNF 50 ng/ml + 6-OHDA 20 μM 48 hours, Plate 2, FIG. 10): 76 % of the control; neurites length ([2]; BDNF 50 ng/ml + 6-OHDA 20 μM 48 hours, Plate 3, FIG. 11): 85 % of the control
